Assay results from patent publication US10576102B2, “KOC1-derived peptide and vaccine including same” (ONCOTHERAPY SCIENCE, INC., priority 2014, dated 2020).

System: peptide-pulsed C1R-A11
Assay: In vitro CTL induction, IFN-gamma ELISPOT assay (HLA-A*1101)
Assay type: cell-based, human
Settings: CTLs induced with peptide-pulsed DCs from HLA-A*1101-positive volunteers; day 21; vs peptide-pulsed C1R-A11, compared with unpulsed control
In short: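 CD8+ T cells from HLA-A*1101-positive donors were stimulated three times (days 0, 7, 14) with irradiated autologous monocyte-derived DCs pulsed with 20 μg/ml peptide, in the presence of IL-7 and IL-2. On day 21, […] were tested by IFN-gamma ELISPOT against peptide-pulsed C1R-A11 stimulators at 1×10^4 cells/well.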

Sequence: TQFVGAIIGK (a peptide derived from KOC1) [SEQ ID NO: 30]
- peptide-specific CTL activity (IFN-gamma production), ELISPOT: potent IFN-gamma production
